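Results reflect a 48-hour exposure of cells in 96-well plates to compound at five concentrations. GI50 is the concentration that inhibits growth by half. TGI marks complete inhibition of growth.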
Experiments:
Experiment in all cases: NCI anticancer screen, dose series, 48 h
[1] = system: COLO 205 colon
[2] = system: IGROV1 ovarian
[3] = system: OVCAR-4 ovarian
[4] = system: HL-60(TB) leukemia
[5] = system: SNB-75 CNS
[6] = system: SR leukemia
[7] = system: SW-620 colon
[8] = system: RPMI-8226 leukemia
[9] = system: HS 578T breast
[10] = system: HCT-15 colon
[11] = system: NCI-H522 lung
[12] = system: OVCAR-5 ovarian
[13] = system: HOP-92 NSCLC
[14] = system: HT29 colon
[15] = system: SK-OV-3 ovarian
[16] = system: NCI-H226 lung
[17] = system: CAKI-1 renal
[18] = system: NCI/ADR-RES ovarian
[19] = system: UACC-62 melanoma
[20] = system: SN12C renal
[21] = system: EKVX NSCLC
[22] = system: SK-MEL-5 melanoma
[23] = system: KM12 colon
[24] = system: UACC-257 melanoma
[25] = system: MALME-3M melanoma
[26] = system: MDA-MB-231 breast
[27] = system: HOP-62 NSCLC
[28] = system: HCT-116 colon
[29] = system: LOX IMVI melanoma
[30] = system: OVCAR-3 ovarian
[31] = system: U251 CNS
[32] = system: SK-MEL-2 melanoma
[33] = system: MOLT-4 leukemia
[34] = system: UO-31 renal
[35] = system: SF-539 CNS
[36] = system: 786-0 renal
[37] = system: MCF7 breast
[38] = system: T-47D breast
[39] = system: ACHN renal
[40] = system: SF-268 CNS
[41] = system: DU-145 prostate
[42] = system: A549 NSCLC
[43] = system: M14 melanoma
[44] = system: RXF 393 renal
[45] = system: A498 renal
[46] = system: OVCAR-8 ovarian
[47] = system: SNB-19 CNS
[48] = system: TK-10 renal
[49] = system: BT-549 breast
[50] = system: NCI-H460 lung
[51] = system: NCI-H23 lung
[52] = system: SK-MEL-28 melanoma
[53] = system: HCC-2998 colon
[54] = system: K-562 leukemia
[55] = system: PC-3 prostate
[56] = system: SF-295 CNS
[57] = system: CCRF-CEM leukemia

O=C(N/N=C/c1ccco1)c1[nH]c2ccc(Br)cc2c1-c1ccccc1
GI50 [1]: 226 nM | TGI [1]: 695 nM | GI50 [2]: 212 nM | TGI [2]: 12800 nM | GI50 [3]: 988 nM | TGI [3]: 26200 nM | GI50 [4]: 135 nM | TGI [4]: 503 nM | GI50 [5]: 177 nM | TGI [5]: 5770 nM | GI50 [6]: 52.7 nM | TGI [6]: 5100 nM | GI50 [7]: 105 nM | TGI [7]: 17300 nM | GI50 [8]: 200 nM | TGI [8]: > 26900 nM | GI50 [9]: 234 nM | TGI [9]: 29500 nM | GI50 [10]: 85.9 nM | TGI [10]: 11800 nM | GI50 [11]: 42.5 nM | TGI [11]: 225 nM | GI50 [12]: 320 nM | TGI [12]: 17600 nM | GI50 [13]: 763 nM | TGI [13]: 13200 nM | GI50 [14]: 143 nM | TGI [14]: 1230 nM | GI50 [15]: 403 nM | TGI [15]: 16900 nM | GI50 [16]: 327 nM | TGI [16]: 10400 nM | GI50 [17]: 251 nM | TGI [17]: 16500 nM | GI50 [18]: 187 nM | TGI [18]: 2800 nM | GI50 [19]: 72.4 nM | TGI [19]: 13600 nM | GI50 [20]: 201 nM | TGI [20]: 4530 nM | GI50 [21]: 1300 nM | TGI [21]: 27300 nM | GI50 [22]: 133 nM | TGI [22]: 644 nM | GI50 [23]: 281 nM | TGI [23]: 12700 nM | GI50 [24]: 437 nM | TGI [24]: 17300 nM | GI50 [25]: 211 nM | TGI [25]: 21300 nM | GI50 [26]: 292 nM | TGI [26]: 2970 nM | GI50 [27]: 326 nM | TGI [27]: 15400 nM | GI50 [28]: 106 nM | TGI [28]: 10700 nM | GI50 [29]: 89.9 nM | TGI [29]: 11700 nM | GI50 [30]: 281 nM | TGI [30]: 14900 nM | GI50 [31]: 192 nM | TGI [31]: 11800 nM | GI50 [32]: 302 nM | TGI [32]: 22400 nM | GI50 [33]: 265 nM | TGI [33]: 11700 nM | GI50 [34]: 267 nM | TGI [34]: 15400 nM | GI50 [35]: 91 nM | TGI [35]: 482 nM | GI50 [36]: 411 nM | TGI [36]: 12600 nM | GI50 [37]: 67.3 nM | TGI [37]: 11100 nM | GI50 [38]: 1410 nM | TGI [38]: 26900 nM | GI50 [39]: 303 nM | TGI [39]: 14700 nM | GI50 [40]: 975 nM | TGI [40]: 27900 nM | GI50 [41]: 309 nM | TGI [41]: 12000 nM | GI50 [42]: 191 nM | TGI [42]: 14300 nM | GI50 [43]: 165 nM | TGI [43]: 21900 nM | GI50 [44]: 348 nM | TGI [44]: 16900 nM | GI50 [45]: 8760 nM | TGI [45]: 25400 nM | GI50 [46]: 162 nM | TGI [46]: 3230 nM | GI50 [47]: 252 nM | TGI [47]: 14700 nM | GI50 [48]: 1610 nM | TGI [48]: 18000 nM | GI50 [49]: 220 nM | TGI [49]: 1190 nM | GI50 [50]: 147 nM | TGI [50]: 1700 nM | GI50 [51]: 403 nM | TGI [51]: 14200 nM | GI50 [52]: 735 nM | TGI [52]: 21100 nM | GI50 [53]: 240 nM | TGI [53]: 9410 nM | GI50 [54]: 48.5 nM | TGI [54]: 11900 nM | GI50 [55]: 309 nM | TGI [55]: 15900 nM | GI50 [56]: 46.4 nM | TGI [56]: 11100 nM | GI50 [57]: 238 nM | TGI [57]: 27100 nM

From PubChem BioAssay (NCI)
